Test: wn = mass fraction of the nth substance listed
Details: 101.3 kPa, Liquid, Vibrating tube method

NCCCO [3-amino-1-propanol] + O
mass density [kg/m3]
Details	w1 = 0.1	w1 = 0.2	w1 = 0.3	w1 = 0.41	w1 = 0.51	w1 = 0.61	w1 = 0.7	w1 = 0.8	w1 = 0.91	w1 = 1
293.15 K	998.7	1002.2	1005.9	1008.8	1011.3	1015.4	1014.9	1009.8	1001.4	987.5
298.15 K	997.3	1000.4	1003.7	1006	1008.2	1011.8	1011.2	1005.9	997.5	983.6
303.15 K	995.7	998.4	1001.3	1003.1	1005	1008	1007.3	1002	993.5	979.6
308.15 K	993.9	996.3	998.8	1000.1	1001.8	1003.9	1003.4	998	989.5	975.5
313.15 K	991.9	994	996.2	997.1	998.5	1001	999.2	994	985.5	971.5
318.15 K	989.7	991.6	993.3	993.9	995	997.2	995.6	990	981.5	967.5
323.15 K	987.3	989	990.6	990.6	991.5	993.3	991.7	986	977.5	963.4
328.15 K	984.8	986.3	987.6	987.9	988	989.5	987.8	981.9	973.4	959.3
333.15 K	983	983.5	984.5	984.5	984.4	985.6	983.9	977.7	969.3	955.8
338.15 K	980.3	980.5	981.3	981.9	980.8	981.6	979.9	973.2	965.2	951.7
343.15 K	977.5	977.5	978	978.3	977.5	977.6	975.8	969.1	961	947.6
348.15 K	974.5	974.3	974.6	974.7	972.9	973.6	971.6	965.1	956.9	943.5
353.15 K	971.2	971	971.1	971.1	970.8	969.5	967.4	961.2	952.7	939.3
